# Experimental data as given in ChEMBL document CHEMBL2202954, “The effect of PLC-γ2 inhibitors on the growth of human tumour cells” (2012).
# How the values were obtained:
# Format in all cases: functional
# MDA-MB-468 = experiment: Cytotoxicity against human MDA-MB-468 cells assessed as cellular growth at 10 uM by SRB assay
# T47D = experiment: Cytotoxicity against human T47D cells assessed as cellular growth at 10 uM by SRB assay
# BT-549 = experiment: Cytotoxicity against human BT549 cells assessed as cellular growth at 10 uM by SRB assay
# Hs-578T = experiment: Cytotoxicity against human Hs578T cells assessed as cellular growth at 10 uM by SRB assay
# MDA-MB-231 = experiment: Cytotoxicity against human MDA-MB-231 cells assessed as cellular growth at 10 uM by SRB assay
# MCF7 = experiment: Cytotoxicity against human MCF7 cells assessed as cellular growth at 10 uM by SRB assay
# DU-145 = experiment: Cytotoxicity against human DU145 cells assessed as cellular growth at 10 uM by SRB assay
# UO-31 = experiment: Cytotoxicity against human UO31 cells assessed as cellular growth at 10 uM by SRB assay
# PC-3 = experiment: Cytotoxicity against human PC3 cells assessed as cellular growth at 10 uM by SRB assay
# TK-10 = experiment: Cytotoxicity against human TK10 cells assessed as cellular growth at 10 uM by SRB assay
# SN12C = experiment: Cytotoxicity against human SN12C cells assessed as cellular growth at 10 uM by SRB assay
# RXF 393 = experiment: Cytotoxicity against human RXF393 cells assessed as cellular growth at 10 uM by SRB assay
# ACHN = experiment: Cytotoxicity against human ACHN cells assessed as cellular growth at 10 uM by SRB assay
# CAKI-1 = experiment: Cytotoxicity against human Caki1 cells assessed as cellular growth at 10 uM by SRB assay
# A498 = experiment: Cytotoxicity against human A498 cells assessed as cellular growth at 10 uM by SRB assay
# 786-0 = experiment: Cytotoxicity against human 786-0 cells assessed as cellular growth at 10 uM by SRB assay
# SK-OV-3 = experiment: Cytotoxicity against human SKOV3 cells assessed as cellular growth at 10 uM by SRB assay
# [1] = Cytotoxicity against human NCI-ADR-RES cells assessed as cellular growth at 10 uM by SRB assay
# OVCAR-8 = experiment: Cytotoxicity against human OVCAR8 cells assessed as cellular growth at 10 uM by SRB assay
# OVCAR-4 = experiment: Cytotoxicity against human OVCAR4 cells assessed as cellular growth at 10 uM by SRB assay
# OVCAR-5 = experiment: Cytotoxicity against human OVCAR5 cells assessed as cellular growth at 10 uM by SRB assay
# OVCAR-3 = experiment: Cytotoxicity against human OVCAR3 cells assessed as cellular growth at 10 uM by SRB assay
# IGROV-1 = experiment: Cytotoxicity against human IGROV1 cells assessed as cellular growth at 10 uM by SRB assay
# UACC-62 = experiment: Cytotoxicity against human UACC62 cells assessed as cellular growth at 10 uM by SRB assay
# UACC-257 = experiment: Cytotoxicity against human UACC257 cells assessed as cellular growth at 10 uM by SRB assay
# SK-MEL-5 = experiment: Cytotoxicity against human SK-MEL-5 cells assessed as cellular growth at 10 uM by SRB assay
# SK-MEL-28 = experiment: Cytotoxicity against human SK-MEL-28 cells assessed as cellular growth at 10 uM by SRB assay
# SK-MEL-2 = experiment: Cytotoxicity against human SK-MEL-2 cells assessed as cellular growth at 10 uM by SRB assay
# MDA-MB-435 = experiment: Cytotoxicity against human MDA-MB-435 cells assessed as cellular growth at 10 uM by SRB assay
# M14 = experiment: Cytotoxicity against human M14 cells assessed as cellular growth at 10 uM by SRB assay
# Malme-3M = experiment: Cytotoxicity against human MALME-3M cells assessed as cellular growth at 10 uM by SRB assay
# LOX IMVI = experiment: Cytotoxicity against human LOXIMVI cells assessed as cellular growth at 10 uM by SRB assay
# U-251 = experiment: Cytotoxicity against human U251 cells assessed as cellular growth at 10 uM by SRB assay
# SNB-75 = experiment: Cytotoxicity against human SNB75 cells assessed as cellular growth at 10 uM by SRB assay
# SNB-19 = experiment: Cytotoxicity against human SNB19 cells assessed as cellular growth at 10 uM by SRB assay
# SF-539 = experiment: Cytotoxicity against human SF539 cells assessed as cellular growth at 10 uM by SRB assay
# SF-295 = experiment: Cytotoxicity against human SF295 cells assessed as cellular growth at 10 uM by SRB assay
# SF-268 = experiment: Cytotoxicity against human SF268 cells assessed as cellular growth at 10 uM by SRB assay
# SW-620 = experiment: Cytotoxicity against human SW620 cells assessed as cellular growth at 10 uM by SRB assay
# KM12 = experiment: Cytotoxicity against human KM12 cells assessed as cellular growth at 10 uM by SRB assay
# HT-29 = experiment: Cytotoxicity against human HT-29 cells assessed as cellular growth at 10 uM by SRB assay
# HCT-15 = experiment: Cytotoxicity against human HCT15 cells assessed as cellular growth at 10 uM by SRB assay
# HCT-116 = experiment: Cytotoxicity against human HCT116 cells assessed as cellular growth at 10 uM by SRB assay
# HCC 2998 = experiment: Cytotoxicity against human HCC2998 cells assessed as cellular growth at 10 uM by SRB assay
# NCI-H522 = experiment: Cytotoxicity against human NCI-H522 cells assessed as cellular growth at 10 uM by SRB assay
# COLO 205 = experiment: Cytotoxicity against human COLO205 cells assessed as cellular growth at 10 uM by SRB assay
# NCI-H460 = experiment: Cytotoxicity against human NCI-H460 cells assessed as cellular growth at 10 uM by SRB assay
# NCI-H322M = experiment: Cytotoxicity against human NCI-H322M cells assessed as cellular growth at 10 uM by SRB assay
# NCI-H226 = experiment: Cytotoxicity against human NCI-H226 cells assessed as cellular growth at 10 uM by SRB assay
# NCI-H23 = experiment: Cytotoxicity against human NCI-H23 cells assessed as cellular growth at 10 uM by SRB assay
# HOP-92 = experiment: Cytotoxicity against human HOP92 cells assessed as cellular growth at 10 uM by SRB assay
# EKVX = experiment: Cytotoxicity against human EKVX cells assessed as cellular growth at 10 uM by SRB assay
# HOP-62 = experiment: Cytotoxicity against human HOP62 cells assessed as cellular growth at 10 uM by SRB assay
# A549 = experiment: Cytotoxicity against human A549 cells assessed as cellular growth at 10 uM by SRB assay
# SR = experiment: Cytotoxicity against human SR cells assessed as cellular growth at 10 uM by SRB assay
# MOLT-4 = experiment: Cytotoxicity against human MOLT4 cells assessed as cellular growth at 10 uM by SRB assay
# RPMI-8226 = experiment: Cytotoxicity against human RPMI8226 cells assessed as cellular growth at 10 uM by SRB assay
# K562 = experiment: Cytotoxicity against human K562 cells assessed as cellular growth at 10 uM by SRB assay
# HL-60(TB) = experiment: Cytotoxicity against human HL-60(TB) cells assessed as cellular growth at 10 uM by SRB assay
# CCRF-CEM = experiment: Cytotoxicity against human CCRF-CEM cells assessed as cellular growth at 10 uM by SRB assay
smiles,measurement,setting,value
CC1(C)CC(=O)c2cc3c(N)c(C(=O)NCc4ccccc4)sc3nc2C1,Activity,MDA-MB-468,93.1%
same,Activity,T47D,100.55%
same,Activity,BT-549,110.98%
same,Activity,Hs-578T,123.14%
same,Activity,MDA-MB-231,101.13%
same,Activity,MCF7,87.02%
same,Activity,DU-145,113.73%
same,Activity,UO-31,110.68%
same,Activity,PC-3,95.51%
same,Activity,TK-10,106.71%
same,Activity,SN12C,98.59%
same,Activity,RXF 393,93.07%
same,Activity,ACHN,102.79%
same,Activity,CAKI-1,110.35%
same,Activity,A498,89.05%
same,Activity,786-0,109.38%
same,Activity,SK-OV-3,111.17%
same,Activity,[1],93.37%
same,Activity,OVCAR-8,95.57%
same,Activity,OVCAR-4,78.52%
same,Activity,OVCAR-5,108.53%
same,Activity,OVCAR-3,115.21%
same,Activity,IGROV-1,107.02%
same,Activity,UACC-62,102.76%
same,Activity,UACC-257,104.6%
same,Activity,SK-MEL-5,91.1%
same,Activity,SK-MEL-28,102.38%
same,Activity,SK-MEL-2,114.95%
same,Activity,MDA-MB-435,91.3%
same,Activity,M14,98.42%
same,Activity,Malme-3M,104.51%
same,Activity,LOX IMVI,102.22%
same,Activity,U-251,99.82%
same,Activity,SNB-75,98.33%
same,Activity,SNB-19,108.68%
same,Activity,SF-539,96.57%
same,Activity,SF-295,100.81%
same,Activity,SF-268,102.72%
same,Activity,SW-620,111.03%
same,Activity,KM12,105.75%
same,Activity,HT-29,106.09%
same,Activity,HCT-15,100.56%
same,Activity,HCT-116,103.66%
same,Activity,HCC 2998,101.88%
same,Activity,NCI-H522,92.67%
same,Activity,COLO 205,128.9%
same,Activity,NCI-H460,101.02%
same,Activity,NCI-H322M,101.83%
same,Activity,NCI-H226,86.42%
same,Activity,NCI-H23,97.31%
same,Activity,HOP-92,60.17%
same,Activity,EKVX,108.91%
same,Activity,HOP-62,95.84%
same,Activity,A549,99.09%
same,Activity,SR,116.5%
same,Activity,MOLT-4,124.23%
same,Activity,RPMI-8226,101.22%
same,Activity,K562,117.84%
same,Activity,HL-60(TB),120.86%
same,Activity,CCRF-CEM,99.55%
O=C(NCCc1ccc(Cl)cc1)c1[nH]c2ccccc2c1Cl,Activity,MDA-MB-468,108.58%
same,Activity,T47D,81.02%
same,Activity,BT-549,111.29%
same,Activity,Hs-578T,94.53%
same,Activity,MDA-MB-231,95.77%
same,Activity,MCF7,78.35%
same,Activity,DU-145,101.11%
same,Activity,UO-31,73.65%
same,Activity,PC-3,88.9%
same,Activity,TK-10,160.82%
same,Activity,SN12C,97.33%
same,Activity,RXF 393,113.7%
same,Activity,ACHN,99.57%
same,Activity,CAKI-1,96.12%
same,Activity,A498,77.04%
same,Activity,786-0,106.07%
same,Activity,SK-OV-3,86.84%
same,Activity,[1],100.24%
same,Activity,OVCAR-8,96.34%
same,Activity,OVCAR-4,89.13%
same,Activity,OVCAR-5,117.9%
same,Activity,OVCAR-3,100.99%
same,Activity,IGROV-1,93.76%
same,Activity,UACC-62,81.86%
same,Activity,UACC-257,100.48%
same,Activity,SK-MEL-5,95.47%
same,Activity,SK-MEL-28,109.77%
same,Activity,SK-MEL-2,130.7%
same,Activity,MDA-MB-435,98.17%
same,Activity,M14,98.43%
same,Activity,Malme-3M,107.52%
same,Activity,LOX IMVI,96.1%
same,Activity,U-251,100.14%
same,Activity,SNB-75,89.76%
same,Activity,SNB-19,98.39%
same,Activity,SF-539,101.07%
same,Activity,SF-295,98.05%
same,Activity,SF-268,97.34%
same,Activity,SW-620,92.87%
same,Activity,KM12,94.49%
same,Activity,HT-29,100.35%
same,Activity,HCT-15,101.72%
same,Activity,HCT-116,98.39%
same,Activity,HCC 2998,102.32%
same,Activity,NCI-H522,101.96%
same,Activity,COLO 205,97.59%
same,Activity,NCI-H460,93.16%
same,Activity,NCI-H322M,106.64%
same,Activity,NCI-H226,89.37%
same,Activity,NCI-H23,92.75%
same,Activity,HOP-92,81.73%
same,Activity,EKVX,91.27%
same,Activity,HOP-62,85.04%
same,Activity,A549,92.96%
same,Activity,MOLT-4,77.08%
same,Activity,RPMI-8226,96.69%
same,Activity,K562,67.44%
same,Activity,HL-60(TB),94.84%
same,Activity,CCRF-CEM,108.31%
